In publication PMC12598616, “Design and optimization of caspase-1-responsive fluorescent probes for pyroptosis imaging and anti-pyroptosis drug screening” (Chemical Science, 2025):

Assays:
caspase-1 [1] = target: T1, caspase-1 (Homo sapiens, UniProt P29466); test: Sensitivity of probes for caspase-1 (fluorescence at 585 nm); type: biochemical; details: for linear fitting range of Cas-1 concentration: fluorescence intensity at 585 nm vs Cas-1 concentration; for enhancement of fluorescence intensity at 585 nm: Cas-1 0–3 U/mL, assay buffer 50 mM HEPES, 50 mM NaCl, 0.1% chaps, 5% glycerol, 10 mM DTT, 10 mM EDTA, λex 510 nm
T1 sequence (P29466 120-297 limits assumed): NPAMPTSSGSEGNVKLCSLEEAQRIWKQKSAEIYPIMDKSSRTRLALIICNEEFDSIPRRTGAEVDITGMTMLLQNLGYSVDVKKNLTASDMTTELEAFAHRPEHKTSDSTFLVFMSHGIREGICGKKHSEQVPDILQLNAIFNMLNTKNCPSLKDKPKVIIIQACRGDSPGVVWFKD
T1 sequence (P29466 317-404 limits assumed): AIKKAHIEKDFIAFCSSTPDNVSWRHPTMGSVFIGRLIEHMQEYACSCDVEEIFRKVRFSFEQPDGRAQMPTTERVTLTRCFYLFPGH
Method: The spectral and chemical properties of all probes were then evaluated. Upon interaction with Cas-1, the specific peptide of the probes is cleaved, leading to the disruption of the FRET process in the system and the recovery of donor fluorescence (Fig. 2a). Prior to fluorescence detection, the UV-vis absorption spectra of the probes were acquired. […] Subsequently, the sensitivity of the probes towards Cas-1 was measured in HEPES buffer (50 mM HEPES, 50 mM NaCl, 0.1% chaps, 5% glycerol, 10 mM DTT, 10 mM EDTA). […] The response differences among the probes were more intuitively observed by analyzing the standard curves of fluorescence intensity at 585 nm against the concentration of Cas-1 (Fig. 2b). […] The reaction kinetics of the probes were also measured by monitoring the fluorescence intensity of FPy1, YPy1 and WPy1 (0.5–4 μM) following incubation with Cas-1 (2 U mL^−1) (Fig. S3a–f). […] The reaction time of the probes was also investigated by monitoring the fluorescence spectra of the probes (5 μM) incubated with Cas-1 (2 U mL^−1) at various time intervals (Fig. S4a–c). […] Finally, the selectivity of the probes was evaluated. A series of potential biologically relevant interferents were selected, and the results illustrated that these interferents had no effect on the probes (Fig. S5a–c). Further selectivity validation was performed through incubating with caspase-3 (1 μg mL^−1), caspase-4 (2 U mL^−1), caspase-8 (1 μg mL^−1) from the caspase protease family. […] Therefore, FPy1 appeared to be the prime candidate for Cas-1 imaging applications. […]
Cell culture plates were sourced from Wuxi NEST Biotechnology. Recombinant human caspase-1, caspase-3, caspase-4, and caspase-8 were obtained from Abcam and MCE (Shanghai, China). Anti-cleaved caspase-1 antibody, anti-GAPDH antibody, and goat anti-Rabbit/anti-mouse lgG/HRP were purchased from CST (USA) and Beyotime […]
(Shanghai, China). […]
Medical College (ethical approval number ZJCLA-IACUC-20011003).
(also on this page, place not known: Wang,*f, Wang*abg Supplementary Information (SI) for Chemical Science. This journal is © The Royal Society of Chemistry 2025)
(1 picture or pasted object on this page, not shown here) […]
mixture was stirred for 3 h. DCM was removed under vacuum, and the residue was purified by silica gel column chromatography (DCM/MeOH, 180/1) to afford WPy1 as a dark purple solid (21 mg, 6 % yield). HRMS (ESI+): calcd […]
Analysis of probe purity by LC-MSD
Prepare dilute solutions of FPy1, YPy1 and WPy1 using chromatographic-grade acetonitrile and transfer them to sample vials. Begin with an initial mobile phase consisting of 20% acetonitrile (0.05 % formic acid) and 80% H2O (0.05 % formic acid). Over the course of 30 minutes, implement a gradient change to a mobile phase of 90% acetonitrile (0.05 % formic acid) and 10% H2O (0.05 % FA). Under the elution conditions, LC-MSD was performed on the above probe solutions and blank solvent acetonitrile.
Sensitivity of probes for caspase-1
(§1) To investigate the sensitivity of the probes for caspase-1, varying concentration of caspase-1 (0, 0.2, 0.4, 0.6, 0.8, 1.0, 1.25, 1.5, 1.75, 2, 2.5, 3 U/mL) were incubated with FPy1 (5 μM), YPy1 (5 μM) and WPy1 (5 μM) respectively in caspase-1 assay buffer (50 mM HEPES, 50 mM NaCl, 0.1 % chaps, 5 % glycerol, 10 mM DTT, 10 mM EDTA) at 37 °C for 2 hours. Fluorescence spectra were recorded using Hitachi F-2700 spectrophotometer with an excitation at 510 nm (Photomultiplier voltage 700 V; Slit widths ex: 10 nm and em =5.0 nm). The fluorescence intensity of FPy1, YPy1 and WPy1 at 585 nm were plotted against the concentration of caspase-1, and a linear regression fitted from the corresponding concentration of caspase-1, and linear regression was applied to determine the slope k. The limit of detection (LoD) was calculated from 3σ/k, in which σ represents the standard deviation of 15 blank measurements.
Various concentrations of FPy1, YPy1 and WPy1 (0.5, 1, 2, 4 μM) in 100 μL enzyme assay buffer (50 mM HEPES, 50 […]

caspase-1 [2] = target: T1, caspase-1; test: Reaction time of probes for caspase-1; type: biochemical; details: probe 5 μM, Cas-1 2 U/mL, assay buffer, 37 °C
Method: The spectral and chemical properties of all probes were then evaluated. Upon interaction with Cas-1, the specific peptide of the probes is cleaved, leading to the disruption of the FRET process in the system and the recovery of donor fluorescence (Fig. 2a). Prior to fluorescence detection, the UV-vis absorption spectra of the probes were acquired. […] Subsequently, the sensitivity of the probes towards Cas-1 was measured in HEPES buffer (50 mM HEPES, 50 mM NaCl, 0.1% chaps, 5% glycerol, 10 mM DTT, 10 mM EDTA). […] The response differences among the probes were more intuitively observed by analyzing the standard curves of fluorescence intensity at 585 nm against the concentration of Cas-1 (Fig. 2b). […] The reaction kinetics of the probes were also measured by monitoring the fluorescence intensity of FPy1, YPy1 and WPy1 (0.5–4 μM) following incubation with Cas-1 (2 U mL^−1) (Fig. S3a–f). […] The reaction time of the probes was also investigated by monitoring the fluorescence spectra of the probes (5 μM) incubated with Cas-1 (2 U mL^−1) at various time intervals (Fig. S4a–c). […] Finally, the selectivity of the probes was evaluated. […]
as §1, with “measurements. […]” for “measurements.”

| Substance | limit of detection (caspase-1 [1]; Cas-1, 3σ/k, σ from 15 blank measurements, probe 5 μM, 37 °C, 2 h, estimated) [U L^−1] | fluorescence intensity at 585 nm at the same Cas-1 concentration (caspase-1 [1]; before maximum, compared to YPy1, probe 5 μM) | catalytic efficiency of Cas-1 for the probe (caspase-1 [1]; compared with YPy1, inferred from intensity at same Cas-1 concentration) | linear fitting range of Cas-1 concentration (caspase-1 [1]; probe 5 μM, 37 °C, 2 h) | enhancement of fluorescence intensity at 585 nm (caspase-1 [1]; probe 5 μM, 37 °C, 2 h) | time to maximum fluorescence intensity at 585 nm (reaction time) (caspase-1 [2]) [min] |
| --- | --- | --- | --- | --- | --- | --- |
| –FLTDG– [FPy1, RhoB donor, hNR quencher] | 3.7 | stronger fluorescence intensity at 585 nm compared to YPy1 | higher catalytic efficiency for FPy1 than YPy1 | 0–1 U mL^−1 | approximately 20.2 fold | ≤ 40 |
| –YVADG– [YPy1, caspase-1-responsive FRET probe with recognition peptide –YVADG–; RhoB donor, hNR quencher] |  |  |  | 0–2 U mL^−1 | ~19.2 fold | 60 |
